In US10519154B2, “7-substituted 1-pyridyl-naphthyridine-3-carboxylic acid amides and use thereof” (Bayer Pharma Aktiengesellschaft, priority 2016, dated 2019):

Target: T1, human M2 receptor (Homo sapiens, UniProt P08172)
T1 sequence (P08172 1-466): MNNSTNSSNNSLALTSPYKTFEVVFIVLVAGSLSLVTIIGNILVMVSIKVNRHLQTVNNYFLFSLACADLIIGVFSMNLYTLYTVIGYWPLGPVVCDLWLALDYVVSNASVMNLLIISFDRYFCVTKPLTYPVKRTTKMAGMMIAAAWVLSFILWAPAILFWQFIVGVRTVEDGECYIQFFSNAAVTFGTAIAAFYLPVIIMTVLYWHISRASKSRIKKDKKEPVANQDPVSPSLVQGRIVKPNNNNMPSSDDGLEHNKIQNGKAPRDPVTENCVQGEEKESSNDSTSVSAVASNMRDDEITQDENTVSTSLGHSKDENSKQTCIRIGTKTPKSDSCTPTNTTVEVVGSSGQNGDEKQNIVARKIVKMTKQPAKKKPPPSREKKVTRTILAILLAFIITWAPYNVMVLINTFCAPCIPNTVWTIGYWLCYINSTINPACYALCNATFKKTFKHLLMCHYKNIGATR
Assay: Functional M2-GIRK1/4 activation test: allosteric potency (EC50) and efficiency
Settings: for EC50: Receptor activity EC50, CHO-DUKX-M2-GIRK cells, acetylcholine at EC20, in some cases mean of two or more determinations; for Emax: read-out: Efficiency, boosting of the acetylcholine effect at EC20 acetylcholine concentration

SMILES | EC50 | Emax (CHO-DUKX-M2-GIRK cells) | Efficiency (boosting of the acetylcholine effect at EC20 acetylcholine concentration, CHO-DUKX-M2-GIRK cells)
CC[C@H](NC(=O)c1cn(-c2c(F)cncc2F)c2nc(N3CCNC3=O)ccc2c1=O)C(F)(F)F [Example 128, 1-(3,5-Difluoropyridin-4-yl)-4-oxo-7-(2-oxoimidazolidin-1-yl)-N-[(2S)-1,1,1-trifluorobutan-2-yl]-1,4-dihydro-1,8-naphthyridine-3-carboxamide] | 520 nM | 89% | –
CC[C@H](NC(=O)c1cn(-c2ncc(F)cc2F)c2nc(N3CC(F)C3)ccc2c1=O)C(F)(F)F [Example 132, 1-(3,5-Difluoropyridin-2-yl)-7-(3-fluoroazetidin-1-yl)-4-oxo-N-[(2S)-1,1,1-trifluorobutan-2-yl]-1,4-dihydro-1,8-naphthyridine-3-carboxamide] | 325 nM | 98% | –
O=C(NC(C1CC1)C(F)(F)F)c1cn(-c2ncc(F)cc2F)c2nc(N3CC[C@@H](O)C3=O)ccc2c1=O (stereo partly drawn) [Example 26, N-[1-Cyclopropyl-2,2,2-trifluoroethyl]-1-(3,5-difluoropyridin-2-yl)-7-[(3R)-3-hydroxy-2-oxopyrrolidin-1-yl]-4-oxo-1,4-dihydro-1,8-naphthyridine-3-carboxamide] | 200 nM | 94.5% | –
CC[C@@H](NC(=O)c1cn(-c2ncc(F)cc2F)c2nc(N3C[C@@H](O)[C@H](O)C3)ccc2c1=O)C(F)(F)F [Example 42, 1-(3,5-Difluoropyridin-2-yl)-7-[(3R,4R)-3,4-dihydroxypyrrolidin-1-yl]-4-oxo-N-[(2R)-1,1,1-trifluorobutan-2-yl]-1,4-dihydro-1,8-naphthyridine-3-carboxamide] | 295 nM | 100% | –
O=C(N[C@@H](C1CC1)C(F)(F)F)c1cn(-c2ncc(F)cc2F)c2nc(N3CCCN(CCO)C3=O)ccc2c1=O [Example 123, N-[(1S)-1-Cyclopropyl-2,2,2-trifluoroethyl]-1-(3,5-difluoropyridin-2-yl)-7-[3-(2-hydroxyethyl)-2-oxotetrahydropyrimidin-1(2H)-yl]-4-oxo-1,4-dihydro-1,8-naphthyridine-3-carboxamide] | 240 nM | 98% | –
CC1(O)CCN(c2ccc3c(=O)c(C(=O)N[C@H](C4CC4)C(F)(F)F)cn(-c4ncc(F)cc4Cl)c3n2)C1 (mixture of isomers) [Example 53, 1-(3-Chloro-5-fluoropyridin-2-yl)-N-[(1R)-1-cyclopropyl-2,2,2-trifluoroethyl]-7-[3-hydroxy-3-methylpyrrolidin-1-yl]-4-oxo-1,4-dihydro-1,8-naphthyridine-3-carboxamide] | 555 nM | 96.5% | –
CC(C)(CC(F)(F)F)NC(=O)c1cn(-c2ncc(F)cc2F)c2nc(N3CCNC3=O)ccc2c1=O [Example 145, 1-(3,5-Difluoropyridin-2-yl)-4-oxo-7-(2-oxoimidazolidin-1-yl)-N-(4,4,4-trifluoro-2-methylbutan-2-yl)-1,4-dihydro-1,8-naphthyridine-3-carboxamide] | 435 nM | 98.5% | –
O=C(N[C@H](C1CC1)C(F)(F)F)c1cn(-c2ncc(F)cc2Cl)c2nc(N3C[C@@H](O)[C@H](O)C3)ccc2c1=O [Example 51, 1-(3-Chloro-5-fluoropyridin-2-yl)-N-[(1R)-1-cyclopropyl-2,2,2-trifluoroethyl]-7-[(3R,4R)-3,4-dihydroxypyrrolidin-1-yl]-4-oxo-1,4-dihydro-1,8-naphthyridine-3-carboxamide] | 527 nM | 84.3% | –
CC(C)(CC(F)(F)F)NC(=O)c1cn(-c2ncc(F)cc2F)c2nc(N3C[C@@H](O)[C@H](O)C3)ccc2c1=O [Example 91, 1-(3,5-Difluoropyridin-2-yl)-7-[(3R,4R)-3,4-dihydroxypyrrolidin-1-yl]-4-oxo-N-(4,4,4-trifluoro-2-methylbutan-2-yl)-1,4-dihydro-1,8-naphthyridine-3-carboxamide] | 280 nM | 99% | –
CC[C@@H](NC(=O)c1cn(-c2ncc(F)cc2F)c2nc(N3CCC(C)(O)C3)ccc2c1=O)C(F)(F)F (mixture of isomers) [Example 46, 1-(3,5-Difluoropyridin-2-yl)-7-[3-hydroxy-3-methylpyrrolidin-1-yl]-4-oxo-N-[(2R)-1,1,1-trifluorobutan-2-yl]-1,4-dihydro-1,8-naphthyridine-3-carboxamide] | 385 nM | 97% | –
CC(C)(NC(=O)c1cn(-c2ncc(F)cc2F)c2nc(N3CCC(CO)(CO)CC3)ccc2c1=O)C(F)(F)C(F)(F)F [Example 187] | 265 nM | 97.5% | –

More lines, in order of falling EC50, values ahead:

EC50 | Emax (CHO-DUKX-M2-GIRK cells) | Efficiency (boosting of the acetylcholine effect at EC20 acetylcholine concentration, CHO-DUKX-M2-GIRK cells) | SMILES
195 nM | 98.5% | – | O=C(N[C@H](C1CC1)C(F)(F)F)c1cn(-c2ncc(F)cc2Cl)c2nc(N3C[C@@H](O)CC3=O)ccc2c1=O [Example 21, 1-(3-Chloro-5-fluoropyridin-2-yl)-N-[(1R)-1-cyclopropyl-2,2,2-trifluoroethyl]-7-[(4S)-4-hydroxy-2-oxopyrrolidin-1-yl]-4-oxo-1,4-dihydro-1,8-naphthyridine-3-carboxamide]
185 nM | 84% | – | CC[C@H](NC(=O)c1cn(-c2ncc(F)cc2F)c2nc(N3CC(O)C(C)C3=O)ccc2c1=O)C(F)(F)F (mixture of isomers) [Example 108, 1-(3,5-Difluoropyridin-2-yl)-7-[4-hydroxy-3-methyl-2-oxopyrrolidin-1-yl]-4-oxo-N-[(2S)-1,1,1-trifluorobutan-2-yl]-1,4-dihydro-1,8-naphthyridine-3-carboxamide]
150 nM | 92% | – | C[C@@H]1CN(c2ccc3c(=O)c(C(=O)NC(C)(C)C(F)F)cn(-c4ncc(F)cc4F)c3n2)C(=O)N1 [Example 144, N-(1,1-difluoro-2-methylpropan-2-yl)-1-(3,5-difluoropyridin-2-yl)-7-[(4R)-4-methyl-2-oxoimidazolidin-1-yl]-4-oxo-1,4-dihydro-1,8-naphthyridine-3-carboxamide]
130 nM | 97% | – | CC(C)(C)[C@H](NC(=O)c1cn(-c2ncc(F)cc2F)c2nc(N3CCN(CCO)C3=O)ccc2c1=O)C(F)(F)F [Example 124, 1-(3,5-Difluoropyridin-2-yl)-7-[3-(2-hydroxyethyl)-2-oxoimidazolidin-1-yl]-4-oxo-N-[(2S)-1,1,1-trifluoro-3,3-dimethylbutan-2-yl]-1,4-dihydro-1,8-naphthyridine-3-carboxamide]
120 nM | – | 100.00% | CC(NC(=O)c1cn(-c2ncc(F)cc2F)c2nc(N3CCNC3=O)ccc2c1=O)C(F)(F)C(F)(F)F (single isomer, unassigned) [Example 163, 1-(3,5-Difluoropyridin-2-yl)-4-oxo-7-(2-oxoimidazolidin-1-yl)-N-[3,3,4,4,4-pentafluorobutan-2-yl]-1,4-dihydro-1,8-naphthyridine-3-carboxamide]
111 nM | 96.5% | – | CC1C(O)C2(CC2)C(=O)N1c1ccc2c(=O)c(C(=O)N[C@H](C3CC3)C(F)(F)F)cn(-c3ncc(F)cc3F)c2n1 (stereo partly drawn) [Example 114, N-[(1R)-1-Cyclopropyl-2,2,2-trifluoroethyl]-1-(3,5-difluoropyridin-2-yl)-7-[7-hydroxy-6-methyl-4-oxo-5-azaspiro[2.4]hept-5-yl]-4-oxo-1,4-dihydro-1,8-naphthyridine-3-carboxamide]
98 nM | 100% | – | CC1C(=O)N(c2ccc3c(=O)c(C(=O)N[C@@H](C4CC4)C(F)(F)F)cn(-c4ncc(F)cc4F)c3n2)CC1O (single isomer, unassigned) [Example 105]
83 nM | 100% | – | CC(C)(NC(=O)c1cn(-c2ncc(F)cc2F)c2nc(N3CCC(O)(CO)CC3)ccc2c1=O)C(F)(F)C(F)(F)F [Example 174, 1-(3,5-Difluoropyridin-2-yl)-7-[4-hydroxy-4-(hydroxymethyl)piperidin-1-yl]-4-oxo-N-(3,3,4,4,4-pentafluoro-2-methylbutan-2-yl)-1,4-dihydro-1,8-naphthyridine-3-carboxamide]
83 nM | 100% | – | O=C(NC(c1ccc(Cl)cc1)C(F)(F)F)c1cn(-c2ncc(F)cc2F)c2nc(N3C[C@@H](O)CC3=O)ccc2c1=O (stereo partly drawn) [Example 8, N-[1-(4-Chlorophenyl)-2,2,2-trifluoroethyl]-1-(3,5-difluoropyridin-2-yl)-7-[(4S)-4-hydroxy-2-oxopyrrolidin-1-yl]-4-oxo-1,4-dihydro-1,8-naphthyridine-3-carboxamide]
60 nM | 98.5% | – | CC(NC(=O)c1cn(-c2ncc(F)cc2F)c2nc(N3CCC[C@@H]3CO)ccc2c1=O)C(F)(F)C(F)(F)F (single isomer, unassigned) [Example 175]
22 nM | 100% | – | O=C(NC(c1cccc(Cl)c1)C(F)(F)F)c1cn(-c2ncc(F)cc2F)c2nc(N3C[C@@H](O)CC3=O)ccc2c1=O (stereo partly drawn) [Example 7, N-[1-(3-Chlorophenyl)-2,2,2-trifluoroethyl]-1-(3,5-difluoropyridin-2-yl)-7-[(4S)-4-hydroxy-2-oxopyrrolidin-1-yl]-4-oxo-1,4-dihydro-1,8-naphthyridine-3-carboxamide]
21 nM | 99% | – | O=C(N[C@H](C1CC1)C(F)(F)F)c1cn(-c2ncc(F)cc2F)c2nc(N3CC4CC4(O)C3)ccc2c1=O (mixture of isomers) [Example 37, N-[(1R)-1-Cyclopropyl-2,2,2-trifluoroethyl]-1-(3,5-difluoropyridin-2-yl)-7-[1-hydroxy-3-azabicyclo[3.1.0]hex-3-yl]-4-oxo-1,4-dihydro-1,8-naphthyridine-3-carboxamide]
